Results taken from US20210106700A1, “Fractionated Dosing of a Phospholipid Ether Analog for the Treatment of Cancer” (Cellectar Biosciences, Inc., priority 2018, published 2021).

Test system: OPM-2 cell line (human multiple myeloma)
Assay: OPM-2 multiple myeloma subcutaneous xenograft in CB17 SCID mice (tumor volume, doubling time, survival, body weight)
Format: in vivo, mouse
Conditions: fractionated dosing
Protocol: The OPM-2 cell line (human multiple myeloma) was purchased from American Type Culture Collection (ATCC, Rockville, Md.) and maintained in McCoy's 5a media supplemented with 10% fetal bovine serum. Female CB17 SCID mice approximately 5-7 weeks of age were injected subcutaneously with 1×10^7 viable cells (in ˜100 μL Dulbecco's PBS) into the right flank. The study was initiated when tumor size had reached a pre-determined size (approximately 150-200 mm3). The mice were given potassium iodide at a concentration of 0.1% in their drinking water to block possible free iodide in the drug formulation three days prior to injection and continuing through two weeks post-injection. Mice were randomly assigned to dose groups. Tumor volume was measured with a caliper during the course of the study. Tumor doubling time calculation4 TDT=D×log(2)/log(1+r/100), where D equals days between measurements and r=rate of growth; r/100=(V2−V1/V1)×100%. Statistical analysis: 1-way Anova, Dunnett's test.

^131I-labeled 18-(p-iodo-phenyl)octadecyl phosphocholine [CLR 131]
Tumor volume vs control (after day 26): statistically significant reduction | Tumor volume vs all other treatments (at day 52, p<0.05): statistically significant reduction
